Source: patent US7566453B2, “Methods for treating melanomas” (Chugai Seiyaku Kabushiki Kaisha, priority 1998, dated 2009)

System: KPMM2 cells
Conditions: fixed concentration of anti-human IL-6 receptor antibody; 0.1 or 1 ng/ml IL-6 (FIG. 1 to 6)
Description: The effects of anti-human IL-6 receptor antibody on sensitivity of KPMM2 cells to chemotherapeutic agents used for treatment of myeloma such as adriamycin (ADR, manufactured by Kyowa Hakko), vincristine (VCR, manufactured by Sigma Chemical Co.), and melphalan (L-PAM, manufactured by Sigma Chemical Co.) were evaluated.
KPMM2 is a multiple myeloma cell line derived from the ascites of a human patient with myeloma (see Japanese Unexamined Patent Publication (Kokai) No. 7-236475). […] The growth activity of the cell was evaluated by incorporation of ^3H-labeled thymidine (manufactured by Amersham) into the cell.
The KPMM2 cells that had been maintained were washed thoroughly with a fresh medium (RPMI1640 medium supplemented with 20% FBS), and then were adjusted to 4×10^5/ml, which was dispensed in 50 μl aliquots in a 96-well flat-bottomed microtiter plate (manufactured by Falcon). Furthermore, a medium containing a recombinant human IL-6 (Asagoe, Y. et al., Bio/Technology (1988) 6, 806-809), anti-human IL-6 receptor antibody hPM-1 (see the above reference example 1 or International Patent Application WO 92-15759), and the above chemotherapeutic agents or a fresh medium as control were added to make 200 μl in each well.
The plate was incubated at 37° C. for 4 days under the humidified condition in the presence of 5% CO2. At four hours before the end of incubation, 10 μl of ^3H-labeled thymidine solution (100 μCi/ml) was added to each well, and then incubated for more 4 hours. At the end of incubation, the cells were collected onto the glass filter (manufactured by Printed Filtermat A, WALLAC) using a harvester (Micro 96 Harvester, manufactured by SKATRON Instruments). The radioactivity incorporated into the cells was measured by a microbeta (1450 MicroBeta, manufactured by WALLAC).
The activity of growth inhibition on KPMM2 was expressed using the effect by a chemotherapeutic agent alone as the control. Using the incorporation of ^3H-labeled thymidine into the cell for each experimental group in which a each concentration of a chemotherapeutic agent was added as 100, the amount of ^3H-labeled thymidine incorporated into the cell in an experimental group in which anti-human IL-6 receptor antibody was simultaneously added was compared as an index.

Compound | relationship of growth index with the concentration of chemotherapeutic agent
COc1cccc2c1C(=O)c1c(O)c3c(c(O)c1C2=O)C[C@@](O)(C(=O)CO)C[C@@H]3O[C@H]1C[C@H](N)[C@H](O)[C@H](C)O1 [adriamycin] | almost constant regardless of their concentration
CC[C@]1(O)C[C@H]2CN(CCc3c([nH]c4ccccc34)[C@@](C(=O)OC)(c3cc4c(cc3OC)N(C=O)[C@H]3[C@@](O)(C(=O)OC)[C@H](OC(C)=O)[C@]5(CC)C=CCN6CC[C@]43[C@@H]65)C2)C1 [vincristine] | almost constant regardless of their concentration
